Key:
[1] = system: adrenaline-caused arrhythmia; test: Adrenaline-caused arrhythmia in narcotized guinea pigs; type: in vivo; conditions: for ED50: Cavia porcellus, iv, intravenously, dose giving antiarrhythmic effect in 50% of the experiments
Description: A further study of the antiarrhythmic activity of the compounds according to the present invention was connected with the determination of their effect on experimental arrhythmia induced by adrenaline.
Guinea pigs of both sexes with a mass of 400-700 g were narcotized with urethane (1,500 mg/kg intraperitoneally) The standard second-lead electrocardiogram was recorded. Arrhythmia was caused by a rapid injection (intravenously) of adrenaline in the dose of […]. To find out the protective antiarrhythmia effect of the compounds according to the present invention, the number of animals in which the total number of ectopic contractions was reduced by 50% and more as compared to the control experiments was recorded. […] The results obtained in this study of the antiarrhythmic properties of some of the compounds according to the present invention and novocainamide on the adrenaline model of arrhythmia are shown in Table 7.

white mice = test: Acute toxicity upon intraperitoneal administration to white mice; type: in vivo; conditions: i.p.
Description: (§1) The acute toxicity of the compounds according to the present invention was studied on white mice of both sexes with a mass of 20-25 g. A saturated aqueous solution of the compounds or a suspension in Tween-80 was administered to the animals intraperitoneally. The observation over the animals was carried out for 14 days. The results obtained were processed following the Litchfield-Wilkoxon method. As it follows from the data shown in Table 5 hereinbelow, the studied compounds have a very low acute toxicity, thus providing a large spectrum of the therapeutic effect.

[2] = as above; type: in vivo; conditions: mouse, in vivo, ip, 14 days observation, average values with confidential limits at P=0.05
Description: as §1

[3] = system: arrhythmia caused by introduction of calcium chloride; test: Antiarrhythmic activity on the model of arrhythmia caused by calcium chloride (antagonism towards calcium); type: in vivo, mice; conditions: for Dose of calcium chloride causing arrhythmia: control 85.0; for Dose of calcium chloride causing heart arrest: control 100.0
Description: In experiments on white mice with a mass of 18-25 g narcotized with urethane an electrocardiogram was recorded in the second standard lead. A 2% solution of calcium chloride was introduced into the tail vein at a constant rate (0.01 ml for 2 seconds). The dose of calcium chloride causing arrhythmia and the dose causing heart arrest were determined. In experimental groups the test compounds were administered 20-40 minutes prior to the beginning of the experiment intraperitoneally.

[4] = system: hypertensive male rats of the Akamoto-Aoki line; test: Variation of arterial pressure upon intraperitoneal administration to hypertensive rats; type: in vivo
Description: The study of hypotensive properties of the compounds of this invention has been carried out of hypertensive male rats of the Akamoto-Aoki line aged 25-30 weeks. The animals were divided into groups (7-10 rats in each) and for 2 weeks before the beginning of the experiment they were subjected to an every-day training for adaptation to the unit for measurements of the arterial pressure. The systolic and diastolic arterial pressure were measured indirectly on the tail artery. The level of the arterial pressure prior to administration of the test compounds was measured by way of a triple determination thereof--2 days, one day and right before the administration of the preparation. The compounds were administered intraperitoneally in the form of a 2.5% aqueous solution or a 2.5% suspension in Twin-80 in the dose of 50 mg/kg. The measurement of the arterial pressure was effected 30 minutes, 1, 2, 3 and 4 hours and in some cases 24 hours after the administration of the preparation. For a number of compounds featuring a high efficiency, also determined was the dose causing reduction of the arterial pressure by 30% as compared with the starting level (ED30). The statistical processing of the data obtained was carried out using the Student certainty criterion.

[5] = system: spontaneously hypertensive rats of the Akamoto-Aoki line; test: Systolic arterial pressure of spontaneously hypertensive rats upon a repeated peroral administration; type: in vivo
Description: Thus, after a four-days course of administration (once a day, per os) of the compounds according to the present invention an essential reduction of the arterial pressure in the test animals is observed which is not returned to the initial level even an expiration of four days after discontinuation of the preparation administration, whereas the hypotensive effect of nifedipine is manifested for only 8 hours.

[6] = system: spontaneously hypertensive rats of the Akamoto-Aoki line; test: Hypotensive activity on spontaneously hypertensive rats at a single peroral administration; type: in vivo; conditions: for Systolic arterial pressure: ethyl 40 mg/kg (initial 198), benzyl 40 mg/kg (initial 196)
[7] = 30 minutes, 50 mg/kg i.p. (nifedipine 1 mg/kg i.p.)
[8] = 1 hour, 50 mg/kg i.p. (nifedipine 1 mg/kg i.p.)
[9] = 2 hours, 50 mg/kg i.p. (nifedipine 1 mg/kg i.p.)
[10] = 4 hours, 50 mg/kg i.p. (nifedipine 1 mg/kg i.p.)
[11] = after four-days p.o. course, benzyl 40 mg/kg, allyl 50 mg/kg, nifedipine dose not given
[12] = p.o. once a day, benzyl 40 mg/kg, allyl 50 mg/kg, nifedipine dose not given
[13] = p.o., benzyl 40 mg/kg, allyl 50 mg/kg, nifedipine dose not given
[14] = 1 hour after single p.o., ethyl 40 mg/kg, benzyl 40 mg/kg
[15] = 3 hours after single p.o., allyl 50 mg/kg (initial 184)
[16] = 3 hours after single p.o., ethyl 40, allyl 50, benzyl 40 mg/kg
[17] = 5 hours after single p.o., allyl 50 mg/kg (initial 184)
[18] = 5 hours after single p.o., ethyl 40, allyl 50, benzyl 40 mg/kg
[19] = 24 hours after single p.o., allyl 50 mg/kg (initial 184)
[20] = 24 hours after single p.o., ethyl 40, allyl 50, benzyl 40 mg/kg

C[N+](C)(CCc1ccccc1)NCCC(=O)[O-] [3-(2,2-dimethyl-2-phenylethylhydrazinium)propionate dihydrate]
Efficiency (animals with ectopic contractions reduced by 50% and more) ([1]; 10.0 mg/kg intravenously): 3/5
Efficiency (animals with ectopic contractions reduced by 50% and more) ([1]; 20.0 mg/kg intravenously): 4/5
ED50 [1]: 7.8 mg/kg
Relative toxicity with respect to quinidine (LD50 / LD50 of quinidine) (white mice): 11.8
LD50 at 336 h [2]: 1850 mg/kg
Dose of calcium chloride causing arrhythmia ([3]; compound dose 5 mg/kg i.p.): 88.7
Dose of calcium chloride causing heart arrest ([3]; compound dose 5 mg/kg i.p.): 115.6
Dose of calcium chloride causing arrhythmia ([3]; compound dose 15 mg/kg i.p.): 110.5
Dose of calcium chloride causing heart arrest ([3]; compound dose 15 mg/kg i.p.): 142.5

CCN(CC)CCNC(=O)c1ccc(N)cc1 [Novocainamide, reference compound]
Efficiency (animals with ectopic contractions reduced by 50% and more) ([1]; 2.5 mg/kg intravenously): 1/5
Efficiency (animals with ectopic contractions reduced by 50% and more) ([1]; 5.0 mg/kg intravenously): 1/5
Efficiency (animals with ectopic contractions reduced by 50% and more) ([1]; 10.0 mg/kg intravenously): 3/5
Efficiency (animals with ectopic contractions reduced by 50% and more) ([1]; 20.0 mg/kg intravenously): 5/5
ED50 [1]: 7.6 mg/kg
Relative toxicity with respect to quinidine (LD50 / LD50 of quinidine) (white mice): 1.85
LD50 at 336 h [2]: 290 mg/kg
Dose of calcium chloride causing arrhythmia ([3]; compound dose 10 mg/kg i.p.): 116.0
Dose of calcium chloride causing heart arrest ([3]; compound dose 10 mg/kg i.p.): 120.0
Dose of calcium chloride causing arrhythmia ([3]; compound dose 30 mg/kg i.p.): 127.0
Dose of calcium chloride causing heart arrest ([3]; compound dose 30 mg/kg i.p.): 138.0

C[N+](C)(Cc1ccccc1)NCCC(=O)[O-] [3-(2,2-dimethyl-2-benzylhydrazinium)propionate]
Average variation of the diastolic arterial pressure [4, 7]: -14 % of the initial
Average variation of the systolic arterial pressure [4, 7]: -14 % of the initial
Average variation of the diastolic arterial pressure [4, 8]: -14 % of the initial
Average variation of the systolic arterial pressure [4, 8]: -14 % of the initial
Average variation of the diastolic arterial pressure [4, 9]: -21 % of the initial
Average variation of the systolic arterial pressure [4, 9]: -15 % of the initial
Average variation of the diastolic arterial pressure [4, 10]: -21 % of the initial
Average variation of the systolic arterial pressure [4, 10]: -14 % of the initial
Average variation of the diastolic arterial pressure ([4]; 24 hours, 50 mg/kg i.p.): -15 % of the initial
Average variation of the systolic arterial pressure ([4]; 24 hours, 50 mg/kg i.p.): -9 % of the initial
Relative toxicity with respect to quinidine (LD50 / LD50 of quinidine) (white mice): 51.9
LD50 at 336 h [2]: 8100 mg/kg
Systolic arterial pressure, 5th day [5, 11]: 166 mm Hg
Systolic arterial pressure, 8th day [5, 11]: 157 mm Hg
Systolic arterial pressure, 10th day [5, 11]: 177.8 mm Hg
Systolic arterial pressure, 1st day after administration ([5]; p.o. once a day, benzyl 40 mg/kg (initial 195.8), allyl 50 mg/kg (initial 176.6), nifedipine dose not given (initial 184.0)): 148.6 mm Hg
Systolic arterial pressure, 2nd day before administration [5, 12]: 167.8 mm Hg
Systolic arterial pressure, 3rd day after administration [5, 12]: 157.4 mm Hg
Systolic arterial pressure, 4th day after administration [5, 12]: 155 mm Hg
Systolic arterial pressure, 4th day before administration [5, 12]: 156 mm Hg
Systolic arterial pressure, 3rd day before administration ([5]; p.o. once a day, benzyl 40 mg/kg, nifedipine dose not given): 153 mm Hg
Percent in parentheses (change of systolic pressure from initial), 1st day after administration [5, 13]: 24%
Percent in parentheses (change of systolic pressure from initial), 2nd day before administration [5, 13]: 14%
Percent in parentheses (change of systolic pressure from initial), 3rd day after administration [5, 13]: 20%
Percent in parentheses (change of systolic pressure from initial), 4th day after administration [5, 13]: 21%
Percent in parentheses (change of systolic pressure from initial), 4th day before administration [5, 13]: 20%
Percent in parentheses (change of systolic pressure from initial), 5th day [5, 13]: 15%
Percent in parentheses (change of systolic pressure from initial), 8th day [5, 13]: 20%
Percent in parentheses (change of systolic pressure from initial), 10th day [5, 13]: 9%
Percent in parentheses (change of systolic pressure from initial), 3rd day before administration ([5]; p.o., benzyl 40 mg/kg, nifedipine dose not given): 22%
Systolic arterial pressure ([6]; 1 hour after single p.o.): 155 mm Hg
Systolic arterial pressure, percent in parentheses (decrease from initial) [6, 14]: 21%
Systolic arterial pressure [6, 15]: 150 mm Hg
Systolic arterial pressure, percent in parentheses (decrease from initial) [6, 16]: 23%
Systolic arterial pressure [6, 17]: 153 mm Hg
Systolic arterial pressure, percent in parentheses (decrease from initial) [6, 18]: 22%
Systolic arterial pressure [6, 19]: 168 mm Hg
Systolic arterial pressure, percent in parentheses (decrease from initial) [6, 20]: 14%
Dose of calcium chloride causing arrhythmia ([3]; compound dose 5 mg/kg i.p.): 90.9
Dose of calcium chloride causing heart arrest ([3]; compound dose 5 mg/kg i.p.): 103.0
Dose of calcium chloride causing arrhythmia ([3]; compound dose 25 mg/kg i.p.): 111.0
Dose of calcium chloride causing heart arrest ([3]; compound dose 25 mg/kg i.p.): 112.0

CC[N+](C)(C)NCCC(=O)[O-] [3-(2,2-dimethyl-2-ethylhydrazinium)propionate monohydrate]
Efficiency (animals with ectopic contractions reduced by 50% and more) ([1]; 3.0 mg/kg intravenously): 1/4
Efficiency (animals with ectopic contractions reduced by 50% and more) ([1]; 10.0 mg/kg intravenously): 2/4
Efficiency (animals with ectopic contractions reduced by 50% and more) ([1]; 20.0 mg/kg intravenously): 4/5
ED50 [1]: 8.2 mg/kg
Average variation of the diastolic arterial pressure [4, 7]: -2 % of the initial
Average variation of the systolic arterial pressure [4, 7]: -5 % of the initial
Average variation of the diastolic arterial pressure [4, 8]: -17 % of the initial
Average variation of the systolic arterial pressure [4, 8]: -11 % of the initial
Average variation of the diastolic arterial pressure [4, 9]: -22 % of the initial
Average variation of the systolic arterial pressure [4, 9]: -13 % of the initial
Average variation of the diastolic arterial pressure [4, 10]: -23 % of the initial
Average variation of the systolic arterial pressure [4, 10]: -18 % of the initial
Average variation of the diastolic arterial pressure ([4]; 24 hours, 50 mg/kg i.p.): -25 % of the initial
Average variation of the systolic arterial pressure ([4]; 24 hours, 50 mg/kg i.p.): -18 % of the initial
Relative toxicity with respect to quinidine (LD50 / LD50 of quinidine) (white mice): 14.7
LD50 at 336 h [2]: 2300 mg/kg
Systolic arterial pressure ([6]; 1 hour after single p.o.): 185 mm Hg
Systolic arterial pressure, percent in parentheses (decrease from initial) [6, 14]: 7%
Systolic arterial pressure [6, 15]: 190 mm Hg
Systolic arterial pressure, percent in parentheses (decrease from initial) [6, 16]: 4%
Systolic arterial pressure [6, 17]: 193 mm Hg
Systolic arterial pressure, percent in parentheses (decrease from initial) [6, 18]: 3%
Systolic arterial pressure [6, 19]: 191 mm Hg
Systolic arterial pressure, percent in parentheses (decrease from initial) [6, 20]: 4%
Dose of calcium chloride causing arrhythmia ([3]; compound dose 5 mg/kg i.p.): 83.0
Dose of calcium chloride causing heart arrest ([3]; compound dose 5 mg/kg i.p.): 95.0
Dose of calcium chloride causing arrhythmia ([3]; compound dose 25 mg/kg i.p.): 91.0
Dose of calcium chloride causing heart arrest ([3]; compound dose 25 mg/kg i.p.): 98.0

Reference: patent publication US4704403A, “3-(2,2,2-trisubstituted hydrazinium) propionates” (priority 1983, dated 1987)
